These results are taken from BindingDB's records for doi:10.1074/jbc.M209367200 (University of Padova, 2003).

For orientation: pKi means the Ki on a negative log10 scale, so that one unit is a factor of ten.

In this assay the target is Casein kinase II subunit alpha (Zea mays, UniProt P28523). As to the kind of experiment: Kinase Inhibition Assay. The note with it: pH 7.5; 22 °C. As for the experimental part: In vitro kinase assay using purified enzyme, was incubated at room temperature with substrate, and test compounds in the presence of 100 uM ATP/ [gamma-33P] ATP. 33P incorporation was measured with scintillation counter. IC50 values were calculated from dose-response curves; from these calculated apparent inhibition constants (Ki) were obtained using the Cheng-Prusoff equation: Ki = IC50/ (1 + ([ATP]/Km)).
Casein kinase II subunit alpha, sequence (P28523 whole entry): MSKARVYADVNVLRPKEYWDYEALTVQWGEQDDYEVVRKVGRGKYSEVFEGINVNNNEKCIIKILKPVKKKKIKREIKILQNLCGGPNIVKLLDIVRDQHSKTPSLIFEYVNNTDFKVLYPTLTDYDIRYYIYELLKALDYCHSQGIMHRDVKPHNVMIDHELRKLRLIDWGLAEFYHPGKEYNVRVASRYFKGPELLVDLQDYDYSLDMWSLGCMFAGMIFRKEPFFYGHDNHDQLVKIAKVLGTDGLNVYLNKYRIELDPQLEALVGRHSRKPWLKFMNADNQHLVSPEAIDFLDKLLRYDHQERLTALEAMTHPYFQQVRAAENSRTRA

pKi: −log10 of the molar value.

Compound `O=C1c2cccc(O)c2C(=O)c2c(O)cccc21` [1,8-dihydroxy-anthraquinone] showed a pKi of less than 4.40.
As for `O=c1c2c(O)cccc2oc2cccc(O)c12` [1,8-dihydroxy-9H-xanthen-9-one], the figure is less than 4.40.
